Earlier results on one compound are cited in US20070099889A1, “Use of pseudan and pseudan inclusion bodies” (priority 2005, published 2007).

The conditions of the data set: isolated from filtrates of 4 to 6 week old culture of P. aeruginosa.

For `CCCCCCCCCc1cc(O)c2ccccc2n1` [4-hydroxy-2-nonylquinoline], the antibiotic activity result is “exhibit antibiotic activity”.
